What was measured:
[1] = target: Potassium-transporting ATPase (Sus scrofa, UniProt P18434+P19156); experiment: Inhibition of H+/K+ ATPase from porcine gastric mucosal membrane vesicles; type: tissue-based, Gastric mucosa
[2] = target: Potassium-transporting ATPase (Rattus norvegicus) (UniProt P09626+P18598); experiment: Gastric antisecretory activity was tested in rats at 30 mg/kg, po expressed as the percentage of inhibition against the acid output of the control group; type: functional, organism-based; parameters: dose 30 mg/kg
[3] = target: Potassium-transporting ATPase (Sus scrofa, UniProt P19156); experiment: In vitro inhibition against H+/K+ ATPase from porcine gastric mucosal membrane vesicles; type: tissue-based, Gastric mucosa
Chain of Potassium-transporting ATPase (Sus scrofa, UniProt P19156) (P18434 whole entry): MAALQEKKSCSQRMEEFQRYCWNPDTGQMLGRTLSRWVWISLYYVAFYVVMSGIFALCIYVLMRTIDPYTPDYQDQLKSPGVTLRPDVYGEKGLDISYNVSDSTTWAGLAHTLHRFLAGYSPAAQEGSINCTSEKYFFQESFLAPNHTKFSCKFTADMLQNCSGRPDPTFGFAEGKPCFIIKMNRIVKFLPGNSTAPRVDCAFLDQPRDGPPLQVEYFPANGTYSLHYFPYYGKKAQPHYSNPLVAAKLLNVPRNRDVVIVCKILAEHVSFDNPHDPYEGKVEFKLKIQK
Chain of Potassium-transporting ATPase (Sus scrofa, UniProt P19156) (P19156 whole entry): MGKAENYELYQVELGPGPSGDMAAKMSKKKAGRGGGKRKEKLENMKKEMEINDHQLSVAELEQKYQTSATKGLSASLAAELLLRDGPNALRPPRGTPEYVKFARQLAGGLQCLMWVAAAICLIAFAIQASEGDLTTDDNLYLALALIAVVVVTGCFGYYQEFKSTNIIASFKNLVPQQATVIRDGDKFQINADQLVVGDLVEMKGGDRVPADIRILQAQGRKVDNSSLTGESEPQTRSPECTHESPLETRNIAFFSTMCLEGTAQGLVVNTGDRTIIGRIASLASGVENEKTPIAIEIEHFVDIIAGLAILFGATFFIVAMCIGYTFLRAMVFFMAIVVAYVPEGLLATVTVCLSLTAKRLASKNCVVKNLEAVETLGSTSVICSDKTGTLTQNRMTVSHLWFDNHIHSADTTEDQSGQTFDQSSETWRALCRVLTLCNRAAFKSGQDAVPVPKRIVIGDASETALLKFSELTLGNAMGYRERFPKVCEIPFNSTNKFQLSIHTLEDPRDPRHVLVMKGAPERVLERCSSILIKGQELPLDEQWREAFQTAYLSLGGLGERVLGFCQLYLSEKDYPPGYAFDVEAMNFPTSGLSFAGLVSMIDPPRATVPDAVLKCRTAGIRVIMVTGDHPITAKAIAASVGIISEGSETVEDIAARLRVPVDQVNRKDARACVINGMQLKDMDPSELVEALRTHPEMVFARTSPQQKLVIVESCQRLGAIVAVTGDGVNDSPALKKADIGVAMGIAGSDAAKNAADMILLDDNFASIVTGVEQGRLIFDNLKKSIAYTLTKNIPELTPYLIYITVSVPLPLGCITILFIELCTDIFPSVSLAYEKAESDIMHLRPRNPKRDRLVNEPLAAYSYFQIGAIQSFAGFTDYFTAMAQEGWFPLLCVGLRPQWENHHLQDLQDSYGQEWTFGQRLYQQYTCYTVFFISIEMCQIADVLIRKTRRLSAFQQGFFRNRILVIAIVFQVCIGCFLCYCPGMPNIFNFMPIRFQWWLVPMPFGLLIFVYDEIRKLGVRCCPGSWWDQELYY

Chain of Potassium-transporting ATPase (Sus scrofa, UniProt P18434+P19156) (P18434 whole entry): as the sequence (P18434 whole entry) above
Chain of Potassium-transporting ATPase (Sus scrofa, UniProt P18434+P19156) (P19156 whole entry): as the sequence (P19156 whole entry) above

Row | IC50 [1] | inhibition [2] [%] | IC50 [3] [µM] | SMILES
1 | Not Active | 0 |  | CN(C)c1ccccc1C[S+]([O-])c1ncc(-c2ccccc2)n1C (configuration not stated)
2 |  | 98 | 98 | Cc1cccnc1-n1ccnc1[S+]([O-])Cc1ccccc1N (configuration not stated)
3 |  | 11 | 6.8 | CN(C)c1ccccc1C[S+]([O-])c1nccn1-c1cc(OCC(F)(F)F)ccn1 (configuration not stated)
4 |  | 59 | 3.4 | COc1cc(C)nc(-n2ccnc2[S+]([O-])Cc2ccccc2N(C)C)c1 (configuration not stated)
5 | Not Active | 90 |  | COc1cccnc1-n1ccnc1[S+]([O-])Cc1ccccc1NC(C)=O (configuration not stated)
6 |  | 2 | 12 | CC(=O)Oc1cccnc1-n1ccnc1[S+]([O-])Cc1ccccc1N(C)C (configuration not stated)
7 | Not Active | 0 |  | CN(C)c1ccccc1C[S+]([O-])c1nc(-c2ccccc2)c(-c2ccccc2)[nH]1 (configuration not stated)
8 |  | 0 |  | CN(C)c1ccccc1C[S+]([O-])c1nccn1-c1ccc(Br)cn1 (configuration not stated)
9 |  | 20 | 68 | CN(C)c1ccccc1C[S+]([O-])c1nc2c(n1-c1ccccc1)CCC2 (configuration not stated)
10 |  | 65 | 43 | CN(C)c1ccccc1C[S+]([O-])c1nccn1-c1nccc2ccccc12 (configuration not stated)
11 |  | 13 | 12 | COc1cnc(-n2ccnc2[S+]([O-])Cc2ccccc2N(C)C)cc1OC (configuration not stated)
12 | Not Active | 22 |  | [O-][S+](Cc1ccccc1-n1ccnc1)c1nccn1-c1ccccn1 (configuration not stated)
13 |  | 98 | 12 | COc1ccc(-n2ccnc2[S+]([O-])Cc2ccccc2N(C)C)nc1 (configuration not stated)
14 |  | 0 | 11 | Cc1cc(C)nc(-n2ccnc2[S+]([O-])Cc2ccccc2N(C)C)c1 (configuration not stated)
15 | Not Active | 47 |  | Cc1cccnc1-n1ccnc1[S+]([O-])Cc1ccccc1-n1cccc1 (configuration not stated)
16 | Not Active | 38 |  | CCN(CC)c1ccccc1C[S+]([O-])c1nc2c(n1Cc1ccccn1)CCC2 (configuration not stated)
17 |  | 9 | 68 | CN(C)c1ccccc1C[S+]([O-])c1nccn1-c1ccccc1 (configuration not stated)
18 | Not Active | 75 |  | CC(=O)Nc1ccccc1C[S+]([O-])c1nc2c(n1-c1ccccn1)CCC2 (configuration not stated)
19 |  | 87 | 44 | CN(C)c1ccccc1C[S+]([O-])c1nccn1CCc1ccccn1 (configuration not stated)
20 |  |  | 7.5 | CNc1ccccc1C[S+]([O-])c1nccn1-c1ncccc1C (configuration not stated)
21 |  | 47 | 44 | Cc1ccc(-n2ccnc2[S+]([O-])Cc2ccccc2N(C)C)nc1 (configuration not stated)

Row | IC50 [1] | inhibition [2] [%] | IC50 [3] [µM] | SMILES
22 |  | 0 | 60 | CN(C)c1ccccc1C[S+]([O-])c1nccn1-c1ccc([N+](=O)[O-])cn1 (configuration not stated)
23 |  | 96 | 31 | CCN(CC)c1ccccc1C[S+]([O-])c1nccn1-c1ccccn1 (configuration not stated)
24 | Not Active | 80 |  | [O-][S+](Cc1ccccc1N1CCOCC1)c1nc2c(n1-c1ccccn1)CCC2 (configuration not stated)
25 |  | 0 | 35 | CN(C)c1ccccc1C[S+]([O-])c1nccn1-c1ccc(C#N)cn1 (configuration not stated)
26 |  | 54 | 7 | CNc1ccccc1C[S+]([O-])c1nccn1-c1ccccn1 (configuration not stated)
27 |  | 80 | 32 | CN(C)c1ccccc1C[S+]([O-])c1ncc[nH]1 (configuration not stated)
28 | Not Active | 99 |  | CC(=O)Nc1ccccc1C[S+]([O-])c1nccn1-c1ccccn1 (configuration not stated)
29 | Not Active | 0 |  | CN(C)c1ccccc1C[S+]([O-])c1nc(-c2ccccc2)cn1C (configuration not stated)
30 | Not Active | 39 |  | COc1cccnc1-n1ccnc1[S+]([O-])Cc1ccccc1-n1cccc1 (configuration not stated)
31 | Not Active | 85 |  | COc1cccnc1-n1ccnc1[S+]([O-])Cc1ccccc1N1CCOCC1 (configuration not stated)
32 | Not Active | 100 |  | Cc1cccnc1-n1ccnc1[S+]([O-])Cc1ccccc1N1CCOCC1 (configuration not stated)
33 | Not Active | 88 |  | [O-][S+](Cc1ccccc1-n1cccc1)c1nccn1-c1ccccn1 (configuration not stated)
34 | Not Active | 62 |  | COc1cccnc1-n1ccnc1[S+]([O-])Cc1ccccc1N1CCCCC1 (configuration not stated)
35 |  | 97 | 32 | CN(C)c1ccccc1C[S+]([O-])c1nc2c(n1-c1ccccn1)CCC2 (configuration not stated)
36 | Not Active | 0 |  | CN(C)c1ccccc1C[S+]([O-])c1nc(-c2ccccc2)cn1Cc1ccccc1 (configuration not stated)
37 |  | 12 | 55 | CN(C)c1ccccc1C[S+]([O-])c1nc2c(n1Cc1ccccn1)CCC2 (configuration not stated)
38 |  | 36 | 7.4 | CN(C)c1ccccc1C[S+]([O-])c1nccn1-c1ccc(C(F)(F)F)cn1 (configuration not stated)
39 |  | 90 | 81 | CNc1ccccc1C[S+]([O-])c1nc2c(n1-c1ncccc1C)CCC2 (configuration not stated)
40 | Not Active | 53 |  | CCN(CC)c1ccccc1C[S+]([O-])c1nc2c(n1-c1ncccc1C)CCC2 (configuration not stated)
41 | Not Active | 90 |  | [O-][S+](Cc1ccccc1N1CCOCC1)c1nccn1-c1ccccn1 (configuration not stated)
42 |  | 95 | 2.6 | COc1ccnc(-n2ccnc2[S+]([O-])Cc2ccccc2N(C)C)c1 (configuration not stated)

Row | IC50 [1] | inhibition [2] [%] | IC50 [3] [µM] | SMILES
43 |  | 29 | 27 | Nc1ccccc1C[S+]([O-])c1nccn1-c1ccccn1 (configuration not stated)
44 |  | 82 | 7.5 | CCNc1ccccc1C[S+]([O-])c1nccn1-c1ncccc1OC (configuration not stated)
45 |  | 72 | 14 | CN(C)c1ccccc1C[S+]([O-])c1nccn1Cc1ccccc1 (configuration not stated)
46 |  | 87 | > 100 | Cc1cccnc1-n1c([S+]([O-])Cc2ccccc2N(C)C)nc2c1CCC2 (configuration not stated)
47 |  | 48 | 5.7 | CN(C)c1ccccc1C[S+]([O-])c1nccn1-c1ccc(N)cn1 (configuration not stated)
48 | Not Active | 0 |  | CCN(CC)c1ccccc1C[S+]([O-])c1nc2c(n1-c1ccncc1)CCC2 (configuration not stated)
49 |  | 0 | 13 | COc1cccc(-n2ccnc2[S+]([O-])Cc2ccccc2N(C)C)n1 (configuration not stated)
50 |  | 64 | 20 | CC(=O)Nc1ccc(-n2ccnc2[S+]([O-])Cc2ccccc2N(C)C)nc1 (configuration not stated)
51 | Not Active | 0 |  | [O-][S+](Cc1ccccc1-n1cccn1)c1nccn1-c1ccccn1 (configuration not stated)
52 |  | 0 | 13 | CN(C)c1ccccc1C[S+]([O-])c1nccn1-c1ccc(Cl)cn1 (configuration not stated)
53 |  | 69 | 16 | CC(C)Oc1cccnc1-n1ccnc1[S+]([O-])Cc1ccccc1N(C)C (configuration not stated)
54 |  | 73 | 95 | COc1cccnc1-n1c([S+]([O-])Cc2ccccc2N(C)C)nc2c1CCC2 (configuration not stated)
55 |  | 34 | 16 | CN(C)c1ccccc1C[S+]([O-])c1nccn1-c1ncccc1OCc1ccccc1 (configuration not stated)
56 |  | 42 | 28 | CN(C)c1ccccc1C[S+]([O-])c1nc2c(n1Cc1ccccc1)CCC2 (configuration not stated)
57 |  | 98 | 11 | CCN(CC)c1ccccc1C[S+]([O-])c1nc2c(n1-c1ccccn1)CCC2 (configuration not stated)
58 |  | 100 | 36 | CN(C)c1ccccc1C[S+]([O-])c1nccn1-c1ccncc1 (configuration not stated)
59 |  | 100 | 46 | CN(C)c1ccccc1C[S+]([O-])c1nccn1Cc1ccccn1 (configuration not stated)
60 |  | 57 | 14 | Cc1cccc(-n2ccnc2[S+]([O-])Cc2ccccc2N(C)C)n1 (configuration not stated)
61 | Not Active | 82 |  | Cc1cccnc1-n1ccnc1[S+]([O-])Cc1ccccc1N1CCCCC1 (configuration not stated)
62 |  | 100 | 33 | COc1cccnc1-n1ccnc1[S+]([O-])Cc1ccccc1N(C)C (configuration not stated)
63 | Not Active | 100 |  | [O-][S+](Cc1ccccc1N1CCCCC1)c1nccn1-c1ccccn1 (configuration not stated)

Row | IC50 [1] | inhibition [2] [%] | IC50 [3] [µM] | SMILES
64 |  | 100 | 100 | CCN(CC)c1ccccc1C[S+]([O-])c1nccn1-c1ncccc1C (configuration not stated)
65 |  | 79 | 100 | COc1cccnc1-n1ccnc1[S+]([O-])Cc1ccccc1N (configuration not stated)
66 | Not Active | 30 |  | CN(C)c1ccccc1C[S+]([O-])c1nccn1-c1cccnc1 (configuration not stated)
67 | Not Active | 0 |  | CN(C)c1ccccc1C[S+]([O-])c1ncc(-c2ccccc2)n1-c1ccccc1 (configuration not stated)
68 | Not Active | 0 |  | CCN(CC)c1ccccc1C[S+]([O-])c1nc2c(n1-c1cccnc1)CCC2 (configuration not stated)
69 |  | 1 | 4.8 | CN(C)c1ccccc1C[S+]([O-])c1nccn1-c1ncccc1O (configuration not stated)
70 | Not Active | 0 |  | CN(C)c1ccccc1C[S+]([O-])c1ncc(-c2ccccc2)n1Cc1ccccc1 (configuration not stated)
71 | Not Active | 30 |  | CN(C)c1ccccc1C[S+]([O-])c1nccn1-c1ncccn1 (configuration not stated)
72 |  | 46 | 50 | Cc1cc(Br)cnc1-n1ccnc1[S+]([O-])Cc1ccccc1N(C)C (configuration not stated)
73 |  | 100 | 33 | Cc1cccnc1-n1ccnc1[S+]([O-])Cc1ccccc1N(C)C (configuration not stated)
74 |  | 12 | 59 | CN(C)c1ccccc1C[S+]([O-])c1nc2c(n1-c1ccccn1)CCCC2 (configuration not stated)
75 |  | 83 | 6 | CNc1ccccc1C[S+]([O-])c1nccn1-c1ncccc1OC (configuration not stated)
76 | Not Active | 94 |  | CCN(CC)c1ccccc1C[S+]([O-])c1nccn1-c1ncccc1OC (configuration not stated)
77 | Not Active | 30 |  | CN(C)c1ccccc1C[S+]([O-])c1nccn1-c1cnccn1 (configuration not stated)
78 | Not Active | 21 |  | [O-][S+](Cc1ccccc1-n1cccc1)c1nc2c(n1-c1ccccn1)CCC2 (configuration not stated)
79 |  | 100 | 18 | CCNc1ccccc1C[S+]([O-])c1nccn1-c1ncccc1C (configuration not stated)
80 |  | 76 | 5.5 | CN(C)c1ccccc1C[S+]([O-])c1nccn1-c1ccccn1 (configuration not stated)
81 |  | 79 | 2.5 | Cc1ccnc(-n2ccnc2[S+]([O-])Cc2ccccc2N(C)C)c1 (configuration not stated)
82 |  | 98 | 32 | CN(C)c1ccccc1C[S+]([O-])c1nccn1C (configuration not stated)

Source: ChEMBL document CHEMBL1129052, “2-[(2-Aminobenzyl)sulfinyl]-1-(2-pyridyl)-1,4,5,6-tetrahydrocyclopent[d]imidazoles as a novel class of gastric H+/K+-ATPase inhibitors” (J Med Chem, 1996)
